Consider 20 compounds from patent US11572373B2, “Maytansinoid-based drug delivery systems” (LADRX CORPORATION, priority 2017, dated 2023).

Marks after values point to notes of the source that are not given here.

The nature of the first data set: Stability and release kinetics of maytansinoid-HSA conjugates in buffer solution at pH 4.0 and pH 7.4. The class given is physicochemical. Particulars: maytansinoid-HSA conjugate, PBS pH 7.4, 37° C., measured at 100 μM. As for the experimental part: For preparing HSA conjugates of albumin-binding maytansinoids, HSA (200 μM: 361.8 μL, 1078 μM free Cys34; 100 μM: 180.9 μL, 1078 μM free Cys34) was diluted with PBS buffer (4 mM sodium phosphate, 150 mM NaCl, pH 7.4) (200 μM: 678.2 μL; 100 μM: 859.1 μL) and DMSO (200 μM: 130.0 μL; 100 μM: 195.0 μL) and incubated in a heating block at 37° C. for 30 minutes. The albumin-binding maytansinoid was added as a 2 mM stock solution in DMSO (200 μM: 130.0 μL; 100 μM: 65.0 μL) to the preincubated HSA sample to produce a 200 μM or 100 μM solution of maytansinoid-prodrug and 300 μM or 150 μM of free Cys34. The mixture having a pH of 7.4 was allowed to react for 10 min at 37° C. and was then analyzed hourly for 24 hours by RP-HPLC (Phenomenex Aeris WP XB-C18, 3.6 μm, 250×4.6 mm).
For studying the release kinetics at pH 4.0 the mixture was acidified with a mixture of 50 mM sodium acetate buffer pH 3.0 (200 μM: 119.3 μL; 100 μM: 125.2 μL) and 1 M HCl (200 μM: 12.7 μL; 100 μM: 6.8 μL) to reach pH 4.0. The mixture was subsequently analyzed hourly for 24 hours by RP-HPLC (Phenomenex Aeris WP XB-C18, 3.6 μm, 250×4.6 mm).
The following RP-HPLC conditions were used: Phenomenex Aeris WP XB-C18 3.6 μm, 250×4.6 mm; eluent A (100% 20 mM Tris buffer pH 8.0) and eluent B (90:10, MeCN: water) eluting with a gradient of eluent B (25% 0-0.5 min, 25-35% 0.5-2.5 min, 35-85% 2.5-16 min, 85-95% 16-17 min, 95% 17-20 min, 95-25% 20-25 min, 25% 25-30 min, flow rate 1.0 mL/min). Column oven temperature 37° C.; autosampler temperature 37° C.; 20 μL of injection volume.
To quantify the percentage of free drug released, standard curves of the free maytansinoids were prepared at different concentrations (200 μM, 100 μM, 50 μM, 25 μM and 12.5 μM). The area under the curve (AUC) was determined at 250 nm.
On to `COc1cc2cc(c1Cl)N(C)C(=O)C[C@H](OC(=O)COc1cccc(/C(C)=N/NC(=O)c3ccc(NC(=O)CCNC(=O)[C@H](CS(=O)(=O)O)NC(=O)CCCCCN4C(=O)C=CC4=O)cc3[N+](=O)[O-])c1)[C@]1(C)O[C@H]1[C@H](C)[C@@H]1C[C@@](O)(NC(=O)O1)[C@H](OC)/C=C/C=C(\C)C2` [Compound 42], for which the “free maytansinoid after 24 h at pH 7.4” value is reported as 4.8%**.

Staying with this data set, now noted: maytansinoid-HSA conjugate, PBS pH 7.4, 37° C., measured at 200 μM.
With `COc1cc2cc(c1Cl)N(C)C(=O)C[C@H](OC(=O)Cc1ccc(/C(C)=N/NC(=O)c3ccc(NC(=O)CCCCCN4C(=O)C=CC4=O)cc3S(=O)(=O)O)cc1)[C@]1(C)O[C@H]1[C@H](C)[C@@H]1C[C@@](O)(NC(=O)O1)[C@H](OC)/C=C/C=C(\C)C2` [Compound 32], the “free maytansinoid after 24 h at pH 7.4” value was 9.5%*.
As to `COc1cc2cc(c1Cl)N(C)C(=O)C[C@H](OC(=O)Cc1ccc(/C(C)=N/NC(=O)c3ccc(NC(=O)CCNC(=O)[C@H](CS(=O)(=O)O)NC(=O)CCCCCN4C(=O)C=CC4=O)cc3[N+](=O)[O-])cc1)[C@]1(C)O[C@H]1[C@H](C)[C@@H]1C[C@@](O)(NC(=O)O1)[C@H](OC)/C=C/C=C(\C)C2` [Compound 33], the “free maytansinoid after 24 h at pH 7.4” value was found to be 6.5%*.
Take `COc1cc2cc(c1Cl)N(C)C(=O)C[C@H](OC(=O)COc1ccc(/C(C)=N/NC(=O)c3ccc(NC(=O)CCCCCN4C(=O)C=CC4=O)cc3S(=O)(=O)O)cc1)[C@]1(C)O[C@H]1[C@H](C)[C@@H]1C[C@@](O)(NC(=O)O1)[C@H](OC)/C=C/C=C(\C)C2` [Compound 36]: the “free maytansinoid after 24 h at pH 7.4” value turned out to be 4.7%*.
With `COc1cc2cc(c1Cl)N(C)C(=O)C[C@H](OC(=O)CSc1ccc(/C(C)=N/NC(=O)c3ccc(NC(=O)CCCCCN4C(=O)C=CC4=O)cc3S(=O)(=O)O)cc1)[C@]1(C)O[C@H]1[C@H](C)[C@@H]1C[C@@](O)(NC(=O)O1)[C@H](OC)/C=C/C=C(\C)C2` [Compound 37], the “free maytansinoid after 24 h at pH 7.4” value turned out to be 3.9%*.
On the same count and under the same terms, the same measure for `COc1cc2cc(c1Cl)N(C)C(=O)C[C@H](OC(=O)CSc1ccc(/C(C)=N/NC(=O)c3ccc(NC(=O)CCCCCN4C(=O)C=CC4=O)cc3S(=O)(=O)O)cc1C(F)(F)F)[C@]1(C)O[C@H]1[C@H](C)[C@@H]1C[C@@](O)(NC(=O)O1)[C@H](OC)/C=C/C=C(\C)C2` [Compound 38]: 4.9%*; for `COc1cc2cc(c1Cl)N(C)C(=O)C[C@H](OC(=O)CSc1ccc(/C(C)=N/NC(=O)c3ccc(NC(=O)CCCCCN4C(=O)C=CC4=O)cc3S(=O)(=O)O)cc1C)[C@]1(C)O[C@H]1[C@H](C)[C@@H]1C[C@@](O)(NC(=O)O1)[C@H](OC)/C=C/C=C(\C)C2` [Compound 39]: 9.6%*.
As to `COc1cc2cc(c1Cl)N(C)C(=O)C[C@H](OC(=O)CN(C)c1ccc(/C(C)=N/NC(=O)c3ccc(NC(=O)CCCCCN4C(=O)C=CC4=O)cc3S(=O)(=O)O)cc1)[C@]1(C)O[C@H]1[C@H](C)[C@@H]1C[C@@](O)(NC(=O)O1)[C@H](OC)/C=C/C=C(\C)C2` [Compound 40], the “free maytansinoid after 24 h at pH 7.4” value is listed as 8.9%*.
On to `COc1cc2cc(c1Cl)N(C)C(=O)C[C@H](OC(=O)CCc1ccc(/C(C)=N/NC(=O)c3ccc(NC(=O)CCCCCN4C(=O)C=CC4=O)cc3S(=O)(=O)O)cc1)[C@]1(C)O[C@H]1[C@H](C)[C@@H]1C[C@@](O)(NC(=O)O1)[C@H](OC)/C=C/C=C(\C)C2` [Compound 41], for which the “free maytansinoid after 24 h at pH 7.4” value is 4.6%*.

The nature of another data set: In vitro cytotoxicity in different cell lines using the CellTiter-Blue Cell Viability Assay. Particulars: Homo sapiens, 96 h, read-out: Geomean IC50. The class given is cell-based, human. In general terms: Alamar Blue is a resazurin reagent that responds to reducing activity.
With `COc1cc2cc(c1Cl)N(C)C(=O)C[C@H](OC(=O)C1CCCN1C(=O)c1ccc(C(C)=O)cc1)[C@]1(C)O[C@H]1[C@H](C)[C@@H]1C[C@@](O)(NC(=O)O1)[C@H](OC)/C=C/C=C(\C)C2` (some centres unmarked) [Compound 20], the IC50 amounted to 0.94 nM.
For `COc1cc2cc(c1Cl)N(C)C(=O)C[C@H](OC(=O)CNC(=O)c1ccc(C(C)=O)cc1)[C@]1(C)O[C@H]1[C@H](C)[C@@H]1C[C@@](O)(NC(=O)O1)[C@H](OC)/C=C/C=C(\C)C2` [Compound 21], the IC50 was found to be 1.67 nM.
With `CCN(CC(=O)O[C@H]1CC(=O)N(C)c2cc(cc(OC)c2Cl)C/C(C)=C/C=C/[C@@H](OC)[C@@]2(O)C[C@H](OC(=O)N2)[C@@H](C)[C@@H]2O[C@@]12C)C(=O)c1ccc(C(C)=O)cc1` [Compound 22], the IC50 was found to be 25 nM.
With `COc1cc2cc(c1Cl)N(C)C(=O)C[C@H](OC(=O)C1CCCN1C(=O)Nc1ccc(C(C)=O)cc1)[C@]1(C)O[C@H]1[C@H](C)[C@@H]1C[C@@](O)(NC(=O)O1)[C@H](OC)/C=C/C=C(\C)C2` (some centres unmarked) [Compound 23], the IC50 amounted to 26.8 nM.
Still for that read-out and setting: the same measure for `COc1cc2cc(c1Cl)N(C)C(=O)C[C@H](OC(=O)[C@H](C)N(C)C(=O)c1ccc(C(C)=O)cc1)[C@]1(C)O[C@H]1[C@H](C)[C@@H]1C[C@@](O)(NC(=O)O1)[C@H](OC)/C=C/C=C(\C)C2` [Compound 24]: 9.04 nM; for `COc1cc2cc(c1Cl)N(C)C(=O)C[C@H](OC(=O)CN(C)C(=O)c1ccc(C(C)=O)cc1)[C@]1(C)O[C@H]1[C@H](C)[C@@H]1C[C@@](O)(NC(=O)O1)[C@H](OC)/C=C/C=C(\C)C2` [Compound 25]: 8.47 nM; for `COc1cc2cc(c1Cl)N(C)C(=O)C[C@H](OC(=O)CN(C)C(=O)c1ccc(C(C)=O)nc1)[C@]1(C)O[C@H]1[C@H](C)[C@@H]1C[C@@](O)(NC(=O)O1)[C@H](OC)/C=C/C=C(\C)C2` [Compound 26]: 18.5 nM.
Consider `COc1cc2cc(c1Cl)N(C)C(=O)C[C@H](OC(=O)CCNC(=O)c1ccc(C(C)=O)cc1)[C@]1(C)O[C@H]1[C@H](C)[C@@H]1C[C@@](O)(NC(=O)O1)[C@H](OC)/C=C/C=C(\C)C2` [Compound 27], for which the IC50 turned out to be 11.7 nM.
Regarding `COc1cc2cc(c1Cl)N(C)C(=O)C[C@H](OC(=O)Nc1ccc(C(C)=O)cc1)[C@]1(C)O[C@H]1[C@H](C)[C@@H]1C[C@@](O)(NC(=O)O1)[C@H](OC)/C=C/C=C(\C)C2` [Compound 28], the concentration for half-maximal inhibition (IC50) amounted to 10.6 nM.
As for `COc1cc2cc(c1Cl)N(C)C(=O)C[C@H](OC(=O)[C@H](C)N(C)C(=O)CCC(C)=O)[C@]1(C)O[C@H]1[C@H](C)[C@@H]1C[C@@](O)(NC(=O)O1)[C@H](OC)/C=C/C=C(\C)C2` [Compound 44], the IC50 was 7.21 nM.

Staying with this data set, now noted: Homo sapiens; geometric mean over the n cell lines tested, 96 h treatment, CellTiter-Blue; read-out: Geomean IC50.
Regarding `COc1cc2cc(c1Cl)N(C)C(=O)CC(O)C1(C)OC1C(C)C1CC(O)(NC(=O)O1)C(OC)/C=C/C=C(\C)C2` (centres unmarked) [Maytansinol, reference compound], the IC50 was found to be 86 nM.

For orientation: IC50 means the concentration needed to halve the response being measured.
